Laboratory results as given in patent US8759010B2, “Host cell kinases as targets for antiviral therapies against HCV infection” (INSERM (Institut National de la Sante et de la Recherche …, priority 2008, dated 2014).
“Also recorded” adds a separate entry of the source. Read-outs that look alike come from different tables or passages of the source.

Tests used:
[1] = system: Huh7.5 cells; assay: MTT cell viability, Huh7.5 cells; type: cell-based, human; conditions: 10 μM, FIG. 7C
Method: (§1) Toxicity Assays. Cytotoxicity effects on cells were assessed in triplicates by analyzing the ability to metabolize 3-(4,5-dimethylthiazol-2-yl)-2,5-diphenyltetrazolium bromide (MTT) (Lan, 2008). For siRNA experiments, MTT was added 3 days after transfection with siRNA for 5 hours. The final concentration of MTT was 0.6 mg/mL. Formazan crystals produced by the cells were solubilized and measured as described (Mosmann, 1983). 2. Identification of Cellular Kinases Involved in HCV Entry Using a Genome-Wide RNAi Kinase HCV Entry Screen

[2] = system: Huh7.5.1 cells; assay: MTT cell viability, Huh7.5.1 cells; type: cell-based, human; conditions: 10 μM, FIG. 7D
Method: as §1

[3] = system: HCVpp (genotype 1b) bearing envelope glycoproteins from HCV strains VD, VH, VK, VN; assay: Entry of patient-derived HCVpp in Huh7.5 cells; type: cell-based; conditions: 10 μM, 1 h prior to infection, FIG. 10B
[4] = achievable plasma concentrations; Hidalgo and Bloedow, 2003; cited from earlier work
[5] = system: HCVpp (genotype 1b) bearing envelope glycoproteins from HCV strains VD, VH, VK, VN; assay: Entry of patient-derived HCVpp in primary human hepatocytes; type: cell-based; conditions: 10 μM, 1 h prior to infection, FIG. 10C
[6] = system: HCVpp H77C, genotype 1a; assay: HCVpp entry in hepatoma cells, luciferase reporter (Example 1); type: cell-based, HCV; conditions: Huh7.5.1 cells, 1 μM or 10 μM inhibitor, 1 h prior to 3 h post-infection, FIG. 3
[7] = system: HCVcc JFH1; assay: HCVcc infection of Huh7.5.1 cells, luciferase reporter or RT-PCR of HCV RNA (Example 1); type: cell-based; conditions: 1 μM or 10 μM inhibitor, dose-dependent, FIG. 3
Method: Bicistronic plasmid pFK-Luc-Jc1 (Koutsoudakis, 2006) encodes a luciferase reporter gene and a chimeric HCV genome designated Jc1 which consists of J6CF and JFH1 segments. In vitro HCV RNA synthesis and RNA transfection were carried out as previously described (Wakita, 2005). Culture supernatants from transfected cells were cleared and concentrated as previously described using an Amicon Ultra 15 (Millipore, USA) and used directly or were stored at 4° C. or −80° C. Viruses were titrered by using the limiting dilution assay on Huh7.5.1 cells with a few minor modifications and TCID50 values were calculated based on a method previously described (Lindenbach, 2005).
All inhibitors used in this study were obtained from LC Laboratories (USA). Before use, they were dissolved in DMSO and diluted in Huh7.5.1 cell culture medium (Zhong, 2005). Following incubation, HCVpp entry and HCVcc infection were assessed by luciferase reporter gene expression or RT-PCR of HCV RNA in cells as previously reported (Pestka, 2007; Zeisel, 2007).

[8] = system: HCVpp JFH1; genotype 2a; assay: HCVpp entry in primary human hepatocytes; type: cell-based, HCV; conditions: JFH1-derived HCVpp; inhibitor added 1 h prior to infection; FIG. 9B
[9] = system: subgenomic HCV JFH1 replicon; assay: HCV replication, subgenomic JFH1 replicon, Northern blot; type: cell-based; conditions: Huh7.5 cells electroporated with subgenomic JFH1 replicon RNA, 24 h incubation, FIG. 9C
Description: HEK 293T, Huh7 and Huh7.5.1 cells used in the present study have previously been described (Bartosch, 2003; Barth, 2003; Zhong, 2005). Primary human hepatocytes were isolated and cultured as previously described (David, 1998, which is incorporated herein by reference in its entirety). Subgenomic HCV replicon JFH1-SGR used herein has also previously been described (Kato, 2005).
A 9.7 kb fragment derived from plasmid […] (Wakita, 2005) digested with XbaI and EcoRI was labeled with α^32P-CTP using NEBlot kit (NEB, USA). Northern blotting was performed according to standard protocols (F. M. Ausubel et al., “Current Protocols in Molecular Biology”, John Wiley 1 Sons, Inc., 2007).
Electroporation of RNA derived from plasmids pSGR-JFH1 was performed as previously described (Lan, 2008). Four hours after electroporation, cells were incubated with protein kinase inhibitors in cell culture supernatant for 24 hours. Total RNA was isolate and analyzed by Northern blot analysis of HCV RNA as described (Lohmann, 1999).

[10] = system: HCVcc Luc-Jc1, genotype 2a/2a; assay: microbe, parasite or virus in culture; type: cell-based, HCV; conditions: for IC50: Hepatitis C virus, hepatocytes or hepatocyte-derived cell lines, FIG. 9, read-out: IC50, inhibition of HCV entry and infection
[11] = system: HCVpp; assay: HCVpp entry in primary human hepatocytes (Flavopiridol); conditions: HCVpp strain not stated
[12] = system: primary human hepatocytes; assay: MTT cell viability, primary human hepatocytes; type: cell-based
Method: Toxicity Assays. […] For siRNA experiments, MTT was added 3 days after transfection with siRNA for 5 hours. The final concentration of MTT was 0.6 mg/mL. […] 2.

## c1cc(-c2cnn3cc(-c4ccc(OCCN5CCCCC5)cc4)cnc23)ccn1 [Dorsomorphin]
[1]
  Cell viability (MTT assay): not diminished
[2]
  Cell viability (MTT assay): slightly reduced

## N#Cc1cnc2cnc(NCc3cccnc3)cc2c1Nc1ccc(F)c(Cl)c1 [TpI2 kinase inhibitor]
[3]
  Entry of patient-derived HCVpp in Huh7.5 cells: did not result in a reproducible inhibition

## C#Cc1cccc(Nc2ncnc3cc(OCCOC)c(OCCOC)cc23)c1 [Erlotinib]
[4]
  mean plasma concentrations: ~4 µM
[5]
  Entry of patient-derived HCVpp in primary human hepatocytes: markedly inhibited
[6]
  HCVpp entry: markedly inhibit
[7]
  HCVcc infection: markedly inhibit
[3]
  Entry of patient-derived HCVpp in Huh7.5 cells: markedly inhibited; also recorded: more potent than Dasatinib
[8]
  HCVpp entry in primary human hepatocytes: dose-dependently inhibited
[9]
  HCV replication: without markedly modulating replication; also recorded: did not inhibit
[10]; HCVcc Luc-Jc1, inhibitor added 1 h prior to infection, dose-dependent, FIG. 9A
  HCVcc infection: dose-dependently inhibited; also recorded: markedly inhibited
[10]; Hepatocyte
  IC50: ~500 nM
[10]; data not shown
  Inhibitory effect on HCVcc infection by detection of viral RNA using RT-PCR: confirmed

## COc1cc2ncnc(Nc3ccc(F)c(Cl)c3)c2cc1OCCCN1CCOCC1 [Gefitinib]
[6]
  HCVpp entry: markedly inhibit
[7]
  HCVcc infection: markedly inhibit

## CS(=O)(=O)CCNCc1ccc(-c2ccc3ncnc(Nc4ccc(OCc5cccc(F)c5)c(Cl)c4)c3c2)o1 [Lapatinib]
[6]
  HCVpp entry: markedly inhibit
[7]
  HCVcc infection: markedly inhibit

## COC[C@H]1OC(=O)c2coc3c2[C@@]1(C)C1=C(C3=O)[C@@H]2CCC(=O)[C@@]2(C)C[C@H]1OC(C)=O [Wortmannin]
[3]
  Entry of patient-derived HCVpp in Huh7.5 cells: did not inhibit
[8]
  HCVpp entry in primary human hepatocytes: did not have any effect

## Cc1nc(Nc2ncc(C(=O)Nc3c(C)cccc3Cl)s2)cc(N2CCN(CCO)CC2)n1 [Dasatinib]
[5]
  Entry of patient-derived HCVpp in primary human hepatocytes: markedly inhibited
[8]
  HCVpp entry in primary human hepatocytes: markedly inhibited
[9]
  HCV replication: did not inhibit
[10]
  IC50: 2000 nM

## CN1CC[C@H](c2c(O)cc(O)c3c(=O)cc(-c4ccccc4Cl)oc23)[C@H](O)C1 [Flavopiridol]
[11]
  HCVpp entry in primary human hepatocytes: markedly inhibited
[12]
  Cytotoxic effects: absence of any detectable cytotoxic effects
